Here are results for 4 molecules from patent US6930114B2, “Pyrrolo (2.1a)dihydroisoquinolines and their use as phosphodiesterase 10a inhibitors” (Bayer Pharmaceuticals Corporation, priority 2000, dated 2005).

The structures appear in SMILES notation. pIC50: −log10 of the molar value. Read-outs that look alike come from different tables or passages of the source.

One experiment deals with T1, PDE 10a (Homo sapiens, UniProt Q9Y233).
T1 construct: Full-length recombinant PDE 10a was expressed in Sf9 insect cells; made in house; host or cells: Sf9 insect cells (Bac-to-Bac baculovirus system); crude lysate supernatant used
T1 sequence (Q9Y233 1-779 isoform Q9Y233-1): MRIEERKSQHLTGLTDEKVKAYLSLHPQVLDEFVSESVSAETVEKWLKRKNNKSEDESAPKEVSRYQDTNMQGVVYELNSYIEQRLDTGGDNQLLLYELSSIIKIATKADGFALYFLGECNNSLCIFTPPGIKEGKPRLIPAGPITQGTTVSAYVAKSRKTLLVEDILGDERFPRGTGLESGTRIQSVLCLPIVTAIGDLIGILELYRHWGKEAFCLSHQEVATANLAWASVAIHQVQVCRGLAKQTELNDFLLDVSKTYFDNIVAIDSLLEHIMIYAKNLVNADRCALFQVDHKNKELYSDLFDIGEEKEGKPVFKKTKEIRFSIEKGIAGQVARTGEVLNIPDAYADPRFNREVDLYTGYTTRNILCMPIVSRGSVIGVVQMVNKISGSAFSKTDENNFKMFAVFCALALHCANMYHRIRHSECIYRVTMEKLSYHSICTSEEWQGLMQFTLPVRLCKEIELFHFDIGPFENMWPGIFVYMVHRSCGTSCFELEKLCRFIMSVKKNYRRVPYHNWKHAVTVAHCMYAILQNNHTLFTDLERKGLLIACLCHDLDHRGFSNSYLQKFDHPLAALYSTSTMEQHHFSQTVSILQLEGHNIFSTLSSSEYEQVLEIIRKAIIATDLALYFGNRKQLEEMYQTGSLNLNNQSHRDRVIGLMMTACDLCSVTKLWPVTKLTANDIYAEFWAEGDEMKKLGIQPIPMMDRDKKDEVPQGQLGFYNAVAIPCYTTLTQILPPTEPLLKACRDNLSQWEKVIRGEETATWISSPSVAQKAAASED
The experiment is described as follows: In vitro enzyme inhibition assay (3H-cAMP scintillation proximity assay). Type of experiment: biochemical. The settings on record: full-length recombinant PDE 10a, Sf9 cell lysate. Here is the method: Full-length recombinant PDE 10a was expressed in Sf9 insect cells (Invitrogen, Carlsbad, Calif., U.S.A.) using the Bac-to-Bac™ Baculovirus Expression System (Life Technologies, Gaithersburg, Md., U.S.A.). 48 hours post infection, cells were harvested and resuspended in 20 mL (per 1 L culture) Lysis Buffer (50 mM Tris-HCl, pH 7.4, 50 mM NaCl, 1 mM MgCl2, 1.5 mM EDTA, 10% glycerol plus 20 μL Protease Inhibitor Cocktail Set III [CalBiochem, La Jolla, Calif., U.S.A.]). Cells were sonicated at 4° C. for 1 minute and centrifuged at 10,000 RPM for 30 minutes at 4° C. Supernatant was removed and stored at −20° C. for activity assays.
The test compounds were serially diluted in DMSO using two-fold dilutions to stock concentrations ranging typically from 200 μM to 1.6 μM (final concentrations in the assay range from 4 μM to 0.032 μM). 96-well assay isoplates (Wallac Inc., Atlanta, Ga., U.S.A.) were loaded with 50 μL dilution buffer per well (dilution buffer: 50 mM Tris/HCl pH 7.5, 8.3 mM MgCl2, 1.7 mM EDTA, 0.2% BSA). 2 μL of the serially diluted individual test compounds were added to individual wells,m followed by 25 μL of a 1:25,000 dilution of crude recombinant PDE 10a-containing Sf9 cell lysate (diluted in dilution buffer described above). The enzymatic assay was initiated by addition of 25 μL (0.025 μCi) ^3H cyclic AMP tracer [5′,8-^3H] adenosine 3′,5′-cyclic phosphate (Amersham Pharmacia Biotech., Piscataway, N.J., U.S.A.) that was diluted 1:1000 in assay buffer (assay buffer: 50 mM Tris/HCl pH 7.5, 8.3 mM MgCl2, 1.7 mM EDTA). Reactions were incubated at room temperature for 60 minutes and terminated by addition of 25 μL of 18 mg/mL Yttrium Scintillation Proximity Beads (Amersham Pharmacia Biotech., Piscataway, N.J., U.S.A.). Plates were sealed and incubated at room temperature for 60 minutes. Plates were read for 30 seconds/well using a Microbeta counter (Wallac Inc., Atlanta, Ga., U.S.A.). The IC50 values were determined by plotting compound concentration versus percent inhibition.

The subject of experiment [1] is MDA-MB-231 human breast carcinoma cells. The experiment is described as follows: In vitro proliferation inhibition assay (LDH activity, 72 hours). Type of experiment: cell-based. Conditions: MDA-MB-231 cells, read-out: % inhibition at a concentration of 10 μM. The method, then: MDA-MB-231 human breast carcinoma cells (ATCC # HTB26) were cultured in standard growth medium (DMEM), supplemented with 10% heat-inactivated FBS, 10 mM HEPES, 2 mM glutamine, 100 U/mL penicillin, and 100 μg/mL streptomycin) at 37° C. in 5% CO2 (vol/vol) in a humidified incubator. Cells were plated at a density of 3000 cells per well in 100 μL growth medium in a 96 well culture dish. 24 hours after plating, LDH activity was determined using the Cytotox 96 Non-radioactive Cytotoxicity Kit (Promega, Madison, Wis., U.S.A.) to yield T0h LDH values. Briefly, cells were lysed with the addition of 200 μL of Lysis Buffer (included in the Promega Kit) and lysates were further diluted 1:50 in Lysis Buffer. 50 μL of diluted cell lysate were transferred to a fresh 96 well culture plate. The assay was initiated with the addition of 50 μL of substrate per well. Color development was allowed to proceed for 10-15 minutes. The assay was terminated with the addition of 50 μL of Stop Solution (included in Promega kit). Optical densities were determined spectrophotometrically at 490 nm in a 96 well plate reader (SpectraMax 250, Molecular Devices, Sunnyvale, Calif., U.S.A.).
Test compounds were dissolved in 100% DMSO to prepare 10 mM stocks. Stocks were further diluted 1:250 in growth medium to yield working stocks of 40 μM test compound in 0.4% DMSO. Test compounds were serially diluted in growth medium containing 0.4% DMSO to maintain constant DMSO concentrations for all wells. 50 μL of fresh growth medium and 50 μL of diluted test compound were added to each culture well to give a final volume of 200 μL. The cells with and without individual test compounds were incubated for 72 hours at which time LDH activity was measured to yield T72h values. Optionally, the IC50 values can be determined with a least squares analysis program using compound concentration versus percent inhibition. % Inhibition=[1−(T72h test−T0h)/(T72h ctrl−T0h)]×100 wherein • T72h test=LDH activity at 72 hours in the presence of test compound, • T72h ctrl=LDH activity at 72 hours in the absence of test compound and • T0h=LDH activity at Time Zero

As a reminder, the pIC50 is the negative decadic logarithm of the IC50, by convention in mol/L. Take `CCOC(=O)c1c(-c2cc(C)c(O)c(C)c2)c(C)n2c1-c1cc(OC)c(OC)cc1CC2` [(part a) 1]: on PDE 10a (Examples of part a (Table 1a)), the pIC50 was 7.52. For the same molecule, the inhibition at 10 µM in experiment [1] (Examples of part a (Table 2a)) was 93%.
Taken in the same sequence, the figures for `CCOC(=O)c1c(-c2cccc(N(C)C)c2)c(C)n2c1-c1cc(OC)c(OC)cc1CC2` [(part a) 10] were 7.38 and 93%.
For `CCOC(=O)c1c(-c2cccc(N)c2)c(C)n2c1-c1cc(OC)c(OC)cc1CC2` [(part a) 28], in that order: 6.96 and 93%.
In the case of `CCOC(=O)c1c(-c2cc(O)cc(O)c2)c(C)n2c1-c1cc(OC)c(OC)cc1CC2` [(part b) 1], at PDE 10a (Examples of part b (Table 1b)), the pIC50 is 6.96. For the same molecule, the inhibition at 10 µM in experiment [1] (Examples of part b (Table 2b)) was determined as 89%.
